The values below come from paper PMC4138991, “Building a Better Dynasore: The Dyngo Compounds Potently Inhibit Dynamin and Endocytosis” (Traffic (Copenhagen, Denmark), 2013).

For the assay, the system named is cultured CGNs. Kind of assay: SV turnover by FM1-43 loading/unloading in cultured cerebellar granule neurons. The class given is cell-based, rat. To be noted: 30 μM, 15 min preincubation. The protocol: Granule neuron cultures were prepared from the cerebella of 7‐day‐old rat pups as previously described 57. In all experiments, neurons were used between 8 and 10 days in vitro.
Neuronal cultures were removed from culture medium and left for 10 min in incubation medium [170 mM NaCl, 3.5 mM KCl, 0.4 mM KH2PO4, 20 mM TES (N‐tris[hydroxy‐methyl]‐methyl‐2‐aminoethane‐sulfonic acid), 5 mM NaHCO3, 5 mM glucose, 1.2 mM Na2SO4, 1.2 mM MgCl2 and 1.3 mM CaCl2, pH 7.4]. Cultures were then mounted in a Warner imaging chamber (RC‐21BRFS). Invaginating membrane was loaded with FM1‐43 (10 μM) by evoking SV turnover with a brief train of action potentials (80 Hz for 10 seconds, 100 mA and 1‐millisecond pulse width, delivered using platinum wires embedded in the imaging chamber). Dye kept present for 1 min after stimulation to ensure all retrieving membrane was labeled (S1 loading). After a 10‐min rest period, accumulated dye was unloaded from nerve terminals using two consecutive maximal stimuli with incubation media supplemented with 50 mM KCl (50 mM NaCl removed to maintain osmolarity). The fluorescence decrease due to dye loss provides an estimate of the total number of synaptic vesicles turned over during stimulation (S1). After a 20‐min rest period the S1 protocol was repeated (S2 loading and unloading). […]

Take `O=C(N/N=C/c1cc(O)c(O)cc1O)c1cc2ccccc2cc1O` [4a, (E)-3-Hydroxy-N'-(2,4,5-trihydroxybenzylidene) -2-naphthohydrazide]: the “FM1-43 unloading (SV exocytosis)” value is “did not have a significant acute effect”.
